According to PubChem BioAssay (NCI):
Values joined by “and” are separate entries in the source; they are usually repeats but may differ in a detail not shown here. Equal values may be shown once.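 Following 48 hours of exposure in 96-well plates, responses at five concentrations were used to interpolate endpoints linearly. Abbreviation: GI50, concentration required for 50% inhibition of growth. The concentration for full growth arrest is given as TGI.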 Where a SMILES comes first, the peptide text is derived from it. [ ]: non-standard residue; d: D form. The star is where a group is joined. NMeF = CN[C@@H](Cc1ccccc1)C(=O)O; NMeV = CN[C@H](C(=O)O)C(C)C; Boc = CC(C)(C)OC(=O)*; OBn = c1ccc(CO*)cc1

Tests used:
Assay in all cases: DTP human tumour cell line panel, 48 h
EKVX NSCLC = test system: EKVX NSCLC
HCT-15 colon = test system: HCT-15 colon
SK-MEL-28 melanoma = test system: SK-MEL-28 melanoma
SNB-19 CNS = test system: SNB-19 CNS
CCRF-CEM leukemia = test system: CCRF-CEM leukemia
SF-539 CNS = test system: SF-539 CNS
MDA-MB-231 breast = test system: MDA-MB-231 breast
UACC-257 melanoma = test system: UACC-257 melanoma
RXF 393 renal = test system: RXF 393 renal
DU-145 prostate = test system: DU-145 prostate

Compound	GI50 (EKVX NSCLC) [µM]	TGI (EKVX NSCLC) [µM]	GI50 (HCT-15 colon) [µM]	TGI (HCT-15 colon) [µM]	GI50 (SK-MEL-28 melanoma) [µM]	TGI (SK-MEL-28 melanoma) [µM]	GI50 (SNB-19 CNS) [µM]	TGI (SNB-19 CNS) [µM]	GI50 (CCRF-CEM leukemia) [µM]	TGI (CCRF-CEM leukemia) [µM]	GI50 (SF-539 CNS) [µM]	TGI (SF-539 CNS) [µM]	GI50 (MDA-MB-231 breast) [µM]	TGI (MDA-MB-231 breast) [µM]	GI50 (UACC-257 melanoma) [µM]	TGI (UACC-257 melanoma) [µM]	GI50 (RXF 393 renal) [µM]	TGI (RXF 393 renal)	GI50 (DU-145 prostate) [µM]	TGI (DU-145 prostate) [µM]
O=C1CCC(N2Cc3c(C#CCCCNC(=O)c4cc5c(o4)C(=O)c4ccccc4C5=O)cccc3C2=O)C(=O)N1 (stereo not given)	15	31.1	16.4	45.4	3.53	8.83	2.65	8.35	4.42	55.4	2.27	5.26	2.92	19.6	2	4.48	4.55	18.2 µM	1.82	3.28
Cc1cc(C)c2nc3nc(C)cc(C)c3c(N)c2c1	4.76	43	3.96	22.5	12.6	27	8.51	35.9	9.33	45.7	4.15	14.6	5.17	28.6	5.71	29.8	6.64	27.5 µM	4.72	17.9
Cc1ccc(-c2nc(N)c(C#N)c3c2CCOc2c-3ccc3ccccc23)cc1	3.12		0.0543		2.48	> 100	2.08	> 100	0.224	1.36	0.457	3.48	0.07	0.626	0.474	> 100	0.266	6.29 µM	2.04	17.2
Brc1ccccc1C=NC12CC3CC(CC(C3)C1)C2		> 100		> 100		> 100		> 100		> 100		> 100		> 100		> 100		> 100 µM		> 100
H-HIIKKIRTWYRKAWHVLGKV-NH2	2.37	6.73	4.24	64.7	2.61	7.66	18.3	62	3.71	> 100	2.14	5.31	6.47	22.3	8.48	59.6	4.23	25.1 µM	4.26	15.3
Cc1sc(NC2=NC(=O)/C(=C\c3ccccc3)S2)nc1-c1nc(NC2=NC(=O)/C(=C\c3ccccc3)S2)sc1C	0.0627	1.94	13	> 39.6	25.3	> 50	26	> 50	9.41	35.6	17.9	> 34.1	10.2	27	13.7	> 38.7	> 24.2	> 40.2 µM	0.382	> 20.6
COc1ccc2cc(Cn3cc[n+](Cc4ccc5ccccc5c4)c3)ccc2c1	3.71	15.5	15.8	32.4	2	5.05	1.93	6.65	2.66	10.4	2.37	7.81	1.55	3.81	1.95	5.09	1.75	4.59 µM	4.49	16.9
COc1ccc2c(c1)/C(=C\c1c(Cl)n(C)c3ccccc13)C(=O)N2	3.95	24.4	0.456	8.17	13.5	> 55.4	1.85	23	3.53	> 100	0.672	3.33	0.399	9.53	1.87	13.3	1.53	8.23 µM	3.07	15
CSC1=Nc2c(c(C)c(C)n2COC(CO)CO)C2=NC(=O)CC(C)N12 (stereo not given)	> 100	> 100	> 100	> 100	> 100	> 100	> 100	> 100	16.5	49.5	> 100	> 100	> 100	> 100	> 100	> 100	> 100	> 100 µM	> 100	> 100
Cc1c(-c2nnc(-c3ccc(F)cc3)o2)nnn1-c1ccnc2c(C(F)(F)F)cccc12	31.8	> 100	> 100	> 100	22.6	74.1	25.9	82.3	> 100	> 100	26.5	> 100	29	> 100	> 100	> 100	21.6	70.7 µM	30.4	> 100
COc1ccc(CCN2CCC(Nc3nc4ccccc4n3Cc3ccc(F)cc3)CC2)cc1	1.79	5.35	1.51	3.16	1.61	3.03	1.77	3.93	1.87	5.45	1.77	3.25	1.45	2.88	1.67	3.48	1.16	2.44 µM	1.94	3.65
S=C(c1ccc2c(c1)OCO2)N1CCN(c2cccc(Cl)c2)CC1	4.52	> 100	0.524	> 69.3	1.02	> 100	3.13	> 100	1.01	> 21.9	1.1	8.13	5.73	> 100		> 21.2	10.9	40.8 µM	2.16	> 55.1
O=C(NCCNc1nccc(-c2c(-c3ccc(F)cc3)nc3sccn23)n1)c1ccccc1	7.51	56.1	3.81	39.3	13.4	37.1	11.9	> 100	3.83	36.3	12.2	29.5	15.2	67.2	14.3	41.1	6.19	28.3 µM	12.7	> 100
CCOC(=O)c1c(Cl)c2c(n1Cc1cccc(OC)c1)-c1oncc1CC2	3.05	> 100	0.836	> 100	4.89	> 100	4.41	> 100	2.07	84	2.12	10.6	4.61	> 100	6.41	> 100	2.87	40.4 µM	2.42	27
N#Cc1c(N)nc(NCc2ccccc2)c(C#N)c1-c1ccccc1Cl	24.4	85.3	> 100	> 100	49.5	> 100	23.4	> 100	15.2	45.5	17.9	40.5	5.76	33.8	> 100	> 100	24.6	> 100 µM	21.5	88.6
O=C1/C(=C/c2ccccc2F)CN(C(=O)C(Cl)Cl)C/C1=C\c1ccccc1F	0.451	2.06	0.217	0.694	0.477	1.47	0.349	1.46	0.106	> 100	0.431	1.78	0.404	1.58	1.08	3.19	0.584	1.75 µM	1.01	2.35
O=C(NC1CCCCC1)NS(=O)(=O)c1ccc(-n2nc3c(c2-c2ccc(Cl)cc2)Cc2ccccc2-3)cc1	14.2	37.7	7.79	31.2	21.9	50.5	43.7	> 100	1.13	4.36	11.2	27.7	6.43	23	18.4	39.8	20	75.2 µM	6.39	20.3
CC(C)[C@@H](C(=O)N1CCC[C@H]1C(=O)OCc1ccccc1)N(C)C(=O)[C@H](C(C)C)N(C)C(=O)[C@H](Cc1ccccc1)N(C)C(=O)[C@H](NC(=O)OC(C)(C)C)C(C)C (Boc-[dV][NMeF][NMeV][NMeV]P-OBn)		> 100		> 100		> 100		> 100	36.9	> 100		> 100		> 50	16.5	> 100	22.4	> 50 µM and 65.3 µM		> 50
